The source of these data is patent US11708348B2, “Protease inhibitors for treatment of coronavirus infections” (The Scripps Research Institute, priority 2021, dated 2023).

Molecules are shown by their SMILES.

The subject of one test is SARS-CoV-2 strain USA-WA1/2020. The experiment in a line: microbe, parasite or virus in culture. Particulars: Severe acute respiratory syndrome coronavirus 2, HeLa-ACE2, 24 h, HeLa-ACE2 cells, SARS-CoV-2 infection, 24 h; cells given as a bound; read-out: EC50, uM (Hela). Type of test: cell-based.
As for `CC(C)C[C@H](NC(=O)O[C@@H]1CCOC1)C(=O)N[C@@H](C[C@@H]1CCNC1=O)C(=O)COc1c(F)c(F)cc(F)c1F` [Compound 126, (R)-tetrahydrofuran-3-yl ((S)-4-methyl-1-oxo-1-(((S)-3-oxo-1-((S)-2-oxopyrrolidin-3-yl)-4-(2,3,5,6-tetrafluorophenoxy)butan-2-yl)amino)pentan-2-yl)carbamate], the EC50 was greater than 1 µM.

With `CC(C)C[C@H](NC(=O)OCCc1cccc(Cl)c1)C(=O)N[C@@H](C[C@@H]1CCNC1=O)C(=O)COc1c(F)c(F)cc(F)c1F` [Compound 138, 3-chlorophenethyl ((S)-4-methyl-1-oxo-1-(((S)-3-oxo-1-((S)-2-oxopyrrolidin-3-yl)-4-(2,3,5,6-tetrafluorophenoxy)butan-2-yl)amino)pentan-2-yl)carbamate], the EC50 was greater than 1 µM.

Staying with this test, now noted: Severe acute respiratory syndrome coronavirus 2, HeLa-ACE2, 24 h, HeLa-ACE2 cells, SARS-CoV-2 infection, 24 h; class symbols; read-out: EC50, uM (Hela).
Take `Cc1ccc(NC(=O)C(=O)N[C@@H](CC(C)C)C(=O)N[C@@H](C[C@@H]2CCNC2=O)C(=O)COc2c(F)c(F)cc(F)c2F)c(F)c1` [Compound 68, N1-(2-fluoro-4-methylphenyl)-N2-((S)-4-methyl-1-oxo-1-(((S)-3-oxo-1-((S)-2-oxopyrrolidin-3-yl)-4-(2,3,5,6-tetrafluorophenoxy)butan-2-yl)amino)pentan-2-yl)oxalamide]: the EC50 is less than 0.05 µM.

In the case of `CC(C)C[C@H](NC(=O)C(=O)NC1CCOCC1)C(=O)N[C@@H](C[C@@H]1CCNC1=O)C(=O)COc1c(F)c(F)cc(F)c1F` [Compound 101, N1-((S)-4-methyl-1-oxo-1-(((S)-3-oxo-1-((S)-2-oxopyrrolidin-3-yl)-4-(2,3,5,6-tetrafluorophenoxy)butan-2-yl)amino)pentan-2-yl)-N2-(tetrahydro-2H-pyran-4-yl)oxalamide], the EC50 is 0.05 to 0.2 µM.

For the compound `CC(C)(C)C[C@H](NC(=O)c1cc2cc(F)ccc2[nH]1)C(=O)N[C@@H](C[C@@H]1CCNC1=O)C(=O)COc1c(F)c(F)cc(F)c1F` [Compound 13, N-((S)-4,4-dimethyl-1-oxo-1-(((S)-3-oxo-1-((S)-2-oxopyrrolidin-3-yl)-4-(2,3,5,6-tetrafluorophenoxy)butan-2-yl)amino)pentan-2-yl)-5-fluoro-1H-indole-2-carboxamide], the EC50 lay in the range of 0.5 to 1 µM.

`CC(C)C[C@H](NC(=O)C(=O)N[C@@H]1CCCOC1)C(=O)N[C@@H](C[C@@H]1CCNC1=O)C(=O)COc1c(F)c(F)cc(F)c1F` [Compound 133, N1-((S)-4-methyl-1-oxo-1-(((S)-3-oxo-1-((S)-2-oxopyrrolidin-3-yl)-4-(2,3,5,6-tetrafluorophenoxy)butan-2-yl)amino)pentan-2-yl)-N2-((R)-tetrahydro-2H-pyran-3-yl)oxalamide]: the EC50 was in the range of 0.05 to 0.2 µM.

Turning to `CC(C)C[C@H](NC(=O)C(=O)Nc1ccccc1OC(F)(F)F)C(=O)N[C@@H](C[C@@H]1CCNC1=O)C(=O)COc1c(F)c(F)cc(F)c1F` [Compound 113, N1-((S)-4-methyl-1-oxo-1-(((S)-3-oxo-1-((S)-2-oxopyrrolidin-3-yl)-4-(2,3,5,6-tetrafluorophenoxy)butan-2-yl)amino)pentan-2-yl)-N2-(2-(trifluoromethoxy)-phenyl)oxalamide], the EC50 was less than 0.05 µM.

For `COCC1(NC(=O)C(=O)N[C@@H](CC2CC2)C(=O)N[C@@H](C[C@@H]2CCNC2=O)C(=O)COC(F)(F)F)COC1` [Compound 238, N1-((S)-3-cyclopropyl-1-oxo-1-(((S)-3-oxo-1 ((S)-2-oxopyrrolidin-3-yl)-4-(trifluoromethoxy)butan-2-yl)amino)propan-2-yl)-N2-(3-(methoxymethyl)oxetan-3-yl)oxalamide], the EC50 was in the range of 0.2 to 0.5 µM.

As for `CC(C)(F)C[C@H](NC(=O)c1cc2cc(F)ccc2[nH]1)C(=O)N[C@@H](C[C@@H]1CCNC1=O)C(=O)COc1c(F)c(F)cc(F)c1F` [Compound 18, 5-fluoro-N-((S)-4-fluoro-4-methyl-1-oxo-1-(((S)-3-oxo-1-((S)-2-oxopyrrolidin-3-yl)-4-(2,3,5,6-tetrafluorophenoxy)butan-2-yl)amino)pentan-2-yl)-1H-indole-2-carboxamide], the EC50 is 0.5 to 1 µM.

Turning to `CC(C)C[C@@H](OC(=O)NC(C)C)C(=O)N1CC2(CC2)C[C@H]1C(=O)N[C@@H](C[C@@H]1CCNC1=O)C(=O)COC(F)(F)F` [Compound 329, (R)-4-methyl-1-oxo-1-((S)-6-(((S)-3-oxo-l-((S)-2-oxopyrrolidin-3-yl)-4-(trifluoromethoxy)butan-2-yl)carbamoyl)-5-azaspiro[2.4]heptan-5-yl)pentan-2-yl isopropylcarbamate], the EC50 was less than 0.05 µM.

Regarding `CC[C@H](NC(=O)C1CC2(CC2)CO1)C(=O)N[C@@H](C[C@@H]1CCNC1=O)C(=O)COC(F)(F)F` (stereo partly drawn) [Compound 294, N-((S)-1-oxo-1-(((S)-3-oxo-1-((S)-2-oxopyrrolidin-3-yl)-4-(trifluoromethoxy)butan-2-yl)amino)butan-2-yl)-5-oxaspiro[2.4]heptane-6-carboxamide], the EC50 is less than 0.05 µM.

Turning to `CC(C)C[C@H](NC(=O)C12CC(C)(CO1)C2)C(=O)N[C@@H](C[C@@H]1CCNC1=O)C(=O)COC(F)(F)F` [Compound 313, 4-methyl-N-((S)-4-methyl-1-oxo-1-(((S)-3-oxo-1-((S)-2-oxopyrrolidin-3-yl)-4-(trifluoromethoxy)butan-2-yl)amino)pentan-2-yl)-2-oxabicyclo-[2.1.1]hexane-1-carboxamide], the EC50 lay within 0.05 to 0.2 µM.

As for `CC(C)C[C@H](NC(=O)[C@H](O)c1cccc(Cl)c1)C(=O)N[C@@H](C[C@@H]1CCNC1=O)C(=O)COc1c(F)c(F)cc(F)c1F` [Compound 146, (S)-2-((R)-2-(3-chlorophenyl)-2-hydroxyacetamido)-4-methyl-N-((S)-3-oxo-1-((S)-2-oxopyrrolidin-3-yl)-4-(2,3,5,6-tetrafluorophenoxy)butan-2-yl)pentanamide], the EC50 lay within 0.05 to 0.2 µM.

The same test, now with this note: Severe acute respiratory syndrome coronavirus 2, HeLa-ACE2, 24 h, HeLa-ACE2 cells, SARS-CoV-2 infection, 24 h; given as bound; read-out: EC50, uM (Hela).
With `O=C(Nc1ccccc1F)C(=O)N1C[C@H]2C[C@]1(C(=O)N[C@@H](C[C@@H]1CCNC1=O)C(=O)COC(F)(F)F)C2` [Compound 562, (1 s,4R)-2-(2-((2-fluorophenyl)amino)-2-oxoacetyl)-N-((S)-3-oxo-1-((S)-2-oxopyrrolidin-3-yl)-4-(trifluoromethoxy)butan-2-yl)-2-azabicyclo-[2.1.1]hexane-1-carboxamide], the EC50 was greater than 1 µM.

For `CC1(NC(=O)C(=O)N2CC3(CCC3)C[C@H]2C(=O)N[C@@H](C[C@@H]2CCNC2=O)C(=O)COC(F)(F)F)CC1` [Compound 558, (S)-6-(2-((l-methylcyclopropyl)-amino)-2-oxoacetyl)-N-((S)-3-oxo-1-((S)-2-oxopyrrolidin-3-yl)-4-(trifluoromethoxy)butan-2-yl)-6-azaspiro[3.4]octane-7-carboxamide], the EC50 is greater than 1 µM.

Still in this test, the particulars now being: Severe acute respiratory syndrome coronavirus 2, HeLa-ACE2, 24 h, HeLa-ACE2 cells, SARS-CoV-2 infection, 24 h; read-out: EC50, uM (Hela).
With `O=C1NCC[C@H]1C[C@H](NC(=O)[C@@H]1[C@H]2CCC[C@H]2CN1C(=O)c1noc2ccc(F)cc12)C(=O)COC(F)(F)F` [Compound 614, (1S,3aR,6aS)-2-(5-fluorobenzo[d]isoxazole-3-carbonyl)-N-((S)-3-oxo-1-((S)-2-oxopyrrolidin-3-yl)-4-(trifluoromethoxy)butan-2-yl)octahydrocyclopenta[c]pyrrole-1-carboxamide], the EC50 was less than 0.05 µM.

Regarding `O=C1NCC[C@H]1C[C@H](NC(=O)[C@@H]1CC2(CC2)CN1C(=O)C1CCC(F)(F)C1)C(=O)COC(F)(F)F` (stereo partly drawn) [Compound 720, (6S)-5-(3,3-difluorocyclopentane-1-carbonyl)-N-((S)-3-oxo-1-((S)-2-oxopyrrolidin-3-yl)-4-(trifluoromethoxy)butan-2-yl)-5-azaspiro[2.4]heptane-6-carboxamide], the EC50 is less than 0.05 µM.

As for `O=C(NCC(=O)N1CC2(CC2)C[C@H]1C(=O)N[C@@H](C[C@@H]1CCNC1=O)C(=O)COC(F)(F)F)c1ccccc1F` [Compound 437, (S)-5-((2-fluorobenzoyl)glycyl)-N-((S)-3-oxo-1-((S)-2-oxopyrrolidin-3-yl)-4-(trifluoromethoxy)butan-2-yl)-5-azaspiro[2.4]heptane-6-carboxamide], the EC50 fell in the range of 0.05 to 0.2 µM.

On to `CC[C@@H](N)C(=O)N1C[C@H]2[C@@H]([C@H]1C(=O)N[C@@H](C[C@@H]1CCNC1=O)C(=O)COC(F)(F)F)C2(C)C` [Compound 439, (1R,2S,5S)-3-((R)-2-aminobutanoyl)-6,6-dimethyl-N-((S)-3-oxo-1-((S)-2-oxopyrrolidin-3-yl)-4-(trifluoromethoxy)butan-2-yl)-3-azabicyclo[3.1.0]-hexane-2-carboxamide], for which the EC50 lay in the range of 0.2 to 0.5 µM.

Take `Cc1cc(C(=O)N2C[C@@H]3CCC[C@@H]3[C@H]2C(=O)N[C@@H](C[C@@H]2CCNC2=O)C(=O)COC(F)(F)F)no1` [Compound 545, (1S,3aR,6aS)-2-(5-methylisoxazole-3-carbonyl)-N-((S)-3-oxo-1-((S)-2-oxopyrrolidin-3-yl)-4-(trifluoromethoxy)butan-2-yl)octahydrocyclopenta[c]pyrrole-1-carboxamide]: the EC50 was 0.05 to 0.2 µM.

Take `CC1(C)[C@@H]2[C@@H](C(=O)N[C@@H](C[C@@H]3CCNC3=O)C(=O)COC(F)(F)F)N(C(=O)C(=O)NC3(C(F)(F)F)CC3)C[C@@H]21` [Compound 475, (1R,2S,5S)-6,6-dimethyl-N-((S)-3-oxo-1-((S)-2-oxopyrrolidin-3-yl)-4-(trifluoromethoxy)butan-2-yl)-3-(2-oxo-2-((1-(trifluoromethyl)-cyclopropyl)amino)acetyl)-3-zabicyclo[3.1.0]hexane-2-carboxamide]: the concentration for a half-maximal effect (EC50) was 0.05 to 0.2 µM.

The same test, now with this note: Severe acute respiratory syndrome coronavirus 2, HeLa-ACE2, 24 h, read-out: EC50, uM (Hela).
For `CC(C)C[C@H](CC(=O)NCc1ccccc1F)C(=O)N[C@@H](C[C@@H]1CCNC1=O)C(=O)COc1c(F)c(F)cc(F)c1F` [Compound 54, (R)-N4-(2-fluorobenzyl)-2-isobutyl-N1-((S)-3-oxo-1-((S)-2-oxopyrrolidin-3-yl)-4-(2,3,5,6-tetrafluorophenoxy)butan-2-yl)succinamide], the EC50 is greater than 1 µM.

As a reminder, the EC50 is the concentration at which the effect is half-maximal.
